Each compound was assayed against T1, Human TRPC6 (Homo sapiens, UniProt Q9Y210) (assay: Evaluation of TRPC6 channel inhibitory activity (1), FLIPR Calcium 5 Assay Kit, OAG stimulation (Compound Nos. 1-1293)). Settings: not given.
T1 construct: expressed in transfected cells
T1 sequence (Q9Y210 1-931): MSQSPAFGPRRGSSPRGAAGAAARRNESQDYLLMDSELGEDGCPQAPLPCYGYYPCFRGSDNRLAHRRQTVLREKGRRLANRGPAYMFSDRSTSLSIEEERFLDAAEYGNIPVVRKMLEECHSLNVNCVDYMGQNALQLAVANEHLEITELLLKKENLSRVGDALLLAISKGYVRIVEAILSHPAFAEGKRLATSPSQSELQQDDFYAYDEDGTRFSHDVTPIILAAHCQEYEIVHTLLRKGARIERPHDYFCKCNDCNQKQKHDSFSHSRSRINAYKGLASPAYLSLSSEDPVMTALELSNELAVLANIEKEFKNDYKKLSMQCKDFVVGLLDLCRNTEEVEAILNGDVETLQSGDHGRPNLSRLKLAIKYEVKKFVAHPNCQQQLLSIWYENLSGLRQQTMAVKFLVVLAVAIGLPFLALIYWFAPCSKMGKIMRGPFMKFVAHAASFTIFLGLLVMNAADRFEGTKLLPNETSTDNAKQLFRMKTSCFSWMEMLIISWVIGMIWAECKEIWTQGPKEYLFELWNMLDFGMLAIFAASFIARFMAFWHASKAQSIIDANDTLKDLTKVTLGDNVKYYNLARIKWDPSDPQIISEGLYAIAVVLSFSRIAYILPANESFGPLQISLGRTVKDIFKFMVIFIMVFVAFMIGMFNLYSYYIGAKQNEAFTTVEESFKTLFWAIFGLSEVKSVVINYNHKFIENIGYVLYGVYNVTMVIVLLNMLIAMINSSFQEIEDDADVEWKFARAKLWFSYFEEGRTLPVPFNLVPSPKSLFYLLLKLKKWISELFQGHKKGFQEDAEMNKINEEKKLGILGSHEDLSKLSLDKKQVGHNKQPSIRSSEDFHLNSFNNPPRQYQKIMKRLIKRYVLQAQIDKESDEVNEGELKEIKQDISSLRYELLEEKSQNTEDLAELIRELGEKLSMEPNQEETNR
Format: cell-based
Summary of the method: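 Readout is pIC50 from four-parameter logistic fitting of inhibition of the OAG-evoked (30 μM final) fluorescence calcium signal. Human TRPC6 stable cells are dye-loaded with probenecid, and compound is applied 20 min ahead of agonist.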

Row | Structure (SMILES) | IC50 [nM]
1 | Cc1nc(Oc2cc(C#N)ccc2-c2ccc(CC3(N)COC3)cn2)cc(N2C3CCC2CC3)n1 [Compound No. 670, 4-[5-[(3-Aminooxetan-3-yl)methyl]pyridin-2-yl]-3-[6-(7-azabicyclo[2.2.1]heptan-7-yl)-2-methylpyrimidin-4-yl]oxybenzonitrile] | < 10

Same assay, conditions: Human TRPC6 stably-expressing cells, OAG 30 μM, FLIPR Calcium 5 Assay Kit; read-out: Inhibitory activity (pIC50 class) (converted)

Row | Structure (SMILES) | IC50 [nM]
2 | Cc1nc(OCC(F)(F)F)cc(Oc2cc(C#N)ccc2-n2cc([C@@H](O)CN)cn2)n1 [Compound 268, 4-[4-[(1R)-2-amino-1-hydroxyethyl]pyrazol-1-yl]-3-[2-methyl-6-(2,2,2-trifluoroethoxy)pyrimidin-4-yl]oxybenzonitrile] | 10 to 1000
3 | Cc1nc(Oc2cc(C#N)ccc2-n2cc([C@@H](O)CN)cn2)cc(OC2CCC2)n1 [Compound 269, 4-[4-[(1R)-2-amino-1-hydroxyethyl]pyrazol-1-yl]-3-(6-cyclobutyloxy-2-methylpyrimidin-4-yl)oxybenzonitrile] | 10 to 1000
4 | Cc1nc(OCC2CCC2)cc(Oc2cc(C#N)ccc2-n2cc([C@@H](O)CN)cn2)n1 [Compound 270, 4-[4-[(1R)-2-amino-1-hydroxyethyl]pyrazol-1-yl]-3-[6-(cyclobutylmethoxy)-2-methylpyrimidin-4-yl]oxybenzonitrile] | 10 to 1000
5 | Cc1nc(OCC2CC2(F)F)cc(Oc2cc(C#N)ccc2-n2cc([C@@H](O)CN)cn2)n1 (stereo partly drawn) [Compound 271, 4-[4-[(1R)-2-amino-1-hydroxyethyl]pyrazol-1-yl]-3-[6-[(2,2-difluorocyclopropyl)methoxy]-2-methylpyrimidin-4-yl]oxybenzonitrile] | 10 to 1000
6 | Cn1nc(C2CCOCC2)cc1Oc1cc(C#N)ccc1-c1ncc(CCN)cn1 [Compound 273, 4-[5-(2-aminoethyl)pyrimidin-2-yl]-3-[2-methyl-5-(oxan-4-yl)pyrazol-3-yl]oxybenzonitrile] | < 10
7 | Cn1nc(-c2ccccc2)cc1Oc1cc(C#N)ccc1-c1ncc(CCN)cn1 [Compound 274, 4-[5-(2-aminoethyl)pyrimidin-2-yl]-3-(2-methyl-5-phenylpyrazol-3-yl)oxybenzonitrile] | < 10
8 | Cc1nc(Oc2cc(C#N)ccc2-c2ncc(CCN)cn2)cc(-c2ccccc2)n1 [Compound 275, 4-[5-(2-aminoethyl)pyrimidin-2-yl]-3-(2-methyl-6-phenylpyrimidin-4-yl)oxybenzonitrile] | < 10
9 | N#Cc1ccc(-c2ncc(CCN)cn2)c(Oc2cnnc(-c3ccccc3)c2)c1 [Compound 277, 4-[5-(2-aminoethyl)pyrimidin-2-yl]-3-(6-phenylpyridazin-4-yl)oxybenzonitrile] | < 10
10 | Cn1nc(C2CCC2)cc1Oc1cc(C#N)ccc1-c1ncc(C(O)CN)cn1 (stereo not shown) [Compound 278, 4-[5-(2-amino-1-hydroxyethyl)pyrimidin-2-yl]-3-(5-cyclobutyl-2-methylpyrazol-3-yl)oxybenzonitrile] | < 10
11 | Cc1nc(Oc2cc(C#N)ccc2-n2cc([C@@H](O)CNCC#N)cn2)cc(-c2ccccc2)n1 [Compound 279, 4-[4-[(1R)-2-(cyanomethylamino)-1-hydroxyethyl]pyrazol-1-yl]-3-(2-methyl-6-phenylpyrimidin-4-yl)oxybenzonitrile] | > 1000
12 | N#Cc1ccc(-n2cc(CCN)cn2)c(Oc2cnnc(N3CCOCC3)c2)c1 [Compound 282, 4-[4-(2-aminoethyl)pyrazol-1-yl]-3-(6-morpholin-4-ylpyridazin-4-yl)oxybenzonitrile] | 10 to 1000
13 | N#Cc1ccc(-n2cc(CCN)cn2)c(Oc2cnnc(N3CCCCC3)c2)c1 [Compound 283, 4-[4-(2-aminoethyl)pyrazol-1-yl]-3-(6-piperidin-1-ylpyridazin-4-yl)oxybenzonitrile] | 10 to 1000
14 | N#Cc1ccc(-n2cc(CCN)cn2)c(Oc2cnnc(N3CCCC3)c2)c1 [Compound 284, 4-[4-(2-Aminoethyl)pyrazol-1-yl]-3-(6-pyrrolidin-1-ylpyridazin-4-yl)oxybenzonitrile] | 10 to 1000
15 | Cn1nc(-c2ccccn2)cc1Oc1cc(C#N)ccc1-c1ncc(CCN)cn1 [Compound 285, 4-[5-(2-aminoethyl)pyrimidin-2-yl]-3-(2-methyl-5-pyridin-2-ylpyrazol-3-yl)oxybenzonitrile] | < 10
16 | Cn1nc(-c2ccccc2)cc1Oc1cc(C#N)ccc1-c1ccc(CN)cn1 [Compound 289, 4-[5-(aminomethyl)pyridin-2-yl]-3-(2-methyl-5-phenylpyrazol-3-yl)oxybenzonitrile] | < 10
17 | Cn1nc(-c2ccccc2)cc1Oc1cc(C#N)ccc1-c1cnc(CN)cn1 [Compound 290, 4-[5-(aminomethyl)pyrazin-2-yl]-3-(2-methyl-5-phenylpyrazol-3-yl)oxybenzonitrile] | 10 to 1000
18 | Cn1nc(-c2ccccc2)cc1Oc1cc(C#N)ccc1-c1cc2c(cn1)CNCC2 [Compound 291, 3-(2-methyl-5-phenylpyrazol-3-yl)oxy-4-(5,6,7,8-tetrahydro-2,7-naphthylidin-3-yl)benzonitrile] | > 1000
19 | Cn1nc(-c2ccccc2)cc1Oc1cc(C#N)ccc1-c1ncc2c(n1)CCNC2 [Compound 292, 3-(2-methyl-5-phenylpyrazol-3-yl)oxy-4-(5,6,7,8-tetrahydropyrido[4,3-d]pyrimidin-2-yl)benzonitrile] | 10 to 1000
20 | CCc1cc(Oc2cc(C#N)ccc2-c2ncc(CCN)cn2)n(C)n1 [Compound 293, 4-[5-(2-aminoethyl)pyrimidin-2-yl]-3-(5-ethyl-2-methylpyrazol-3-yl)oxybenzonitrile] | < 10
21 | Cc1nc(Oc2cc(C#N)ccc2-c2ncc(CCN)cn2)cc(-c2ccccc2C#N)n1 [Compound 295, 4-[5-(2-aminoethyl)pyrimidin-2-yl]-3-[6-(2-cyanophenyl)-2-methylpyrimidin-4-yl]oxybenzonitrile] | < 10
22 | N#Cc1ccc(-c2ccc(CCN)cn2)c(Oc2nnc(C(F)(F)F)s2)c1 [Compound No. 712, 4-[5-(2-Aminoethyl)pyridin-2-yl]-3-[[5-(trifluoromethyl)-1,3,4-thiadiazol-2-yl]oxy]benzonitrile] | 10 to 1000

Results, then the compound that gave them:

Row | IC50 [nM] | Structure (SMILES)
23 | < 10 | Cn1nc(C2CCC2)cc1Oc1cc(C#N)ccc1-c1ncc(CCN)cn1 [Compound 272, 4-[5-(2-aminoethyl)pyrimidin-2-yl]-3-(5-cyclobutyl-2-methylpyrazol-3-yl)oxybenzonitrile]
24 | < 10 | Cn1nc(C2CCC2)cc1Oc1cc(C#N)ccc1-c1ccc(C(O)CN)cn1 (stereo not shown) [Compound 276, 4-[5-(2-amino-1-hydroxyethyl)pyridin-2-yl]-3-(5-cyclobutyl-2-methylpyrazol-3-yl)oxybenzonitrile]
25 | 10 to 1000 | Cn1nc(C2CCC2)cc1Oc1cc(C#N)ccc1-c1ccc(C(O)CNCC#N)cn1 (stereo not shown) [Compound 280, 4-[5-[2-(cyanomethylamino)-1-hydroxyethyl]pyridin-2-yl]-3-(5-cyclobutyl-2-methylpyrazol-3-yl)oxybenzonitrile]
26 | > 1000 | Cn1nc(C2CCC2)cc1Oc1cc(C#N)ccc1-c1ncc(C(O)CNCC#N)cn1 (stereo not shown) [Compound 281, 4-[5-[2-(cyanomethylamino)-1-hydroxyethyl]pyrimidin-2-yl]-3-(5-cyclobutyl-2-methylpyrazol-3-yl)oxybenzonitrile]
27 | 10 to 1000 | Cn1nc(C2CC2)cc1Oc1cc(C#N)ccc1-c1ccc(CCNCC#N)cn1 [Compound 286, 4-[5-[2-(cyanomethylamino)ethyl]pyridin-2-yl]-3-(5-cyclopropyl-2-methylpyrazol-3-yl)oxybenzonitrile]
28 | < 10 | Cn1nc(C2CCC2)cc1Oc1cc(C#N)ccc1-c1cnc(C(O)CN)cn1 (stereo not shown) [Compound 287, 4-[5-(2-amino-1-hydroxyethyl)pyrazin-2-yl]-3-(5-cyclobutyl-2-methylpyrazol-3-yl)oxybenzonitrile]
29 | < 10 | CCc1cc(Oc2cc(C#N)ccc2-c2ccc(CCN)cn2)n(C)n1 [Compound 288, 4-[5-(2-aminoethyl)pyridin-2-yl]-3-(5-ethyl-2-methylpyrazol-3-yl)oxybenzonitrile]
30 | < 10 | Cn1nc(C2CCC2)cc1Oc1cc(C#N)ccc1-c1ccc(C(F)(F)CN)cn1 [Compound 294, 4-[5-(2-amino-1,1-difluoroethyl)pyridin-2-yl]-3-(5-cyclobutyl-2-methylpyrazol-3-yl)oxybenzonitrile]
31 | > 1000 | Cn1nc(C2CC2)cc1Oc1cc(C#N)ccc1-c1ccc(C(N)C(=O)N2CCOCC2)cn1 (stereo not shown) [Compound No. 487, 4-[5-(1-Amino-2-morpholin-4-yl-2-oxoethyl)pyridin-2-yl]-3-(5-cyclopropyl-2-methylpyrazol-3-yl)oxybenzonitrile]

From patent publication US20230167073A1 (Teijin Pharma Limited, priority 2020, published 2023)
